Reference: US20020107197A1, “Ligands for G protein coupled receptors and methods of using them” (priority 2000, published 2002)

What was measured:
[1] = target: T1, TDAG8 (Homo sapiens, UniProt Q8IYL9); experiment: Transwell cell migration of TDAG8-transfected HEK293 cells; format: cell-based; conditions: TDAG8 overexpressed in HEK293 cells
T1 construct: expressed in transfected cells
Experimental: (§1) To determine whether GPR4 and/or TDGA8 can mediate the LPC-induced cell migration, we transfected HEK293 cells with GPR4 or TDAG8. Cell migration was performed in Transwell apparatus. GPR4-transfected HEK293 cells, and TDAG8-transfected HEK293 cells migrated to the low-phase of the membrane and the lower chamber of the Transwell in response to SPC and LPC, used at 0.2 μM.

[2] = target: T2, endogenous PAF receptor (Homo sapiens, UniProt P25105); experiment: Calcium assay of the endogenous PAF receptor in MCF10A cells; format: cell-based; conditions: parental MCF10A cells
T2 construct: endogenous in cells; host or cells: MCF10A (parental and GPR4-GFP-transfected)
T2 sequence (P25105 whole entry): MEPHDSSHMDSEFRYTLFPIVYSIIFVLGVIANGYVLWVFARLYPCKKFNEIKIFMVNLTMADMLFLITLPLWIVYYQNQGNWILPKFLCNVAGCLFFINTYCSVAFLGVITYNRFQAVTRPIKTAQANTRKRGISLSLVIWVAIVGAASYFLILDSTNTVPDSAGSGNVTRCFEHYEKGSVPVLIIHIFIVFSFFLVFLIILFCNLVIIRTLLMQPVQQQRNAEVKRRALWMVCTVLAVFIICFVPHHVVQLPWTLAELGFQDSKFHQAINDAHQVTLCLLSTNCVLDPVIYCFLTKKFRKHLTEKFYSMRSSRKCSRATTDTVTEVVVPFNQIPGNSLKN
Experimental: Measurement of [Ca^2+]i, was performed as described previously in Xu et al. (2000) Nat Cell Biol 2, 261-267. Briefly, pGPR4-GFP-transfected MCF10A cells were grown in specialized glass-bottom dishes (Bioptech, Inc., Butler, Pa.) and loaded with fura-2 in HEPES buffered saline. Using a dual-wavelength spectrofluorometer (RFK-6002, Photon Technology Int'l, So. Brunswick, N.J.) coupled to an inverted fluorescence microscope (Olympus, IX-70, Lake Success, N.Y.), GFP-positive cells were identified using an excitation wavelength of 488 nm, a dichroic 505 nm long-pass filter and an emitter filter at bandpass of 535 nm (Chroma Technology, Brattleboro, Vt.). Measurements of [Ca^2+]i were performed on individual GPR4-GFP positive cells at excitation wavelengths of 340 and 380 nm and an emission wavelength of 510 nm. Conversion of the 340/380 ratio value into [Ca^2+]i in nM was estimated by comparing the cellular fluorescence ratio with ratios acquired using fura-2 (free acid) in buffers containing known Ca^2+ concentrations. [Ca^2+]i was then calculated as described by Grynkiewicz et al. (1985) J Biol Chem 260, 3440-3450. All calcium assays were performed in the presence of 1 mM EGTA in the assay buffers. Therefore, intracellular calcium release, not calcium influx, was analyzed.
Therefore, it is unlikely that the increase in calcium induced by LPC was mediated by a PAF receptor.

[3] = target: T3, GPR4 (Homo sapiens, UniProt P46093); experiment: Transwell cell migration of GPR4-transfected HEK293 cells; format: cell-based; conditions: 0.2 μM
T3 construct: were used to generate full length GPR4, which was digested with EcoRI and Xba I and cloned into the pBs3HA vector; expressed in transfected cells
T3 sequence (P46093 whole entry): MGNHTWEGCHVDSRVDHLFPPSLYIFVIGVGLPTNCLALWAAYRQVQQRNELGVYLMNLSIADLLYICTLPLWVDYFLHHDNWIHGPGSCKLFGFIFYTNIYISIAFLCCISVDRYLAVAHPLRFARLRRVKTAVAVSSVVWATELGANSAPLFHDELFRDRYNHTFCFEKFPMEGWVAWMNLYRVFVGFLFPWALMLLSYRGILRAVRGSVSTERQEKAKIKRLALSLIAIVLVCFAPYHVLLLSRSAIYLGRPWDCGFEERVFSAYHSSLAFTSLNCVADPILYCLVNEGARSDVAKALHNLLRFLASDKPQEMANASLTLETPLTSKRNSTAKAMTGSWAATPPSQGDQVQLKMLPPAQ
Experimental: as §1

[4] = target: T1, TDAG8; experiment: Binding of phospholipids to TDAG8
Experimental: To characterize the binding of SPC and LPC to GPR4 and TDAG8, we conducted radioligand binding assays. CHO cells were chosen for GPR4 binding assays, since HEK293 cells express relatively high levels of endogenous GPR4. CHO cells stably transfected with empty vector or GPR4 were serum starved for 20 h, then collected after exposure to 2 mM EDTA in PBS. The pelleted cells were stored at −80° C. until use. Binding assays were performed essentially as described previously (Xu et al. (2000) Nat Cell Biol 2, 261-267), except binding was performed at 4° C. Briefly, frozen cells (10^6 cells/ml) were homogenized in a binding buffer. Assays were performed in 96-well plates in triplicate with 100 μl cell homogenate (equivalent to 10^5 cells/well). Different amounts of [^3H]SPC or [^3H]16:0-LPC were added to the cell homogenates in 50 μl of binding buffer, in the presence or absence of cold SPC or 16:0-LPC, or other competitors. The plates were incubated at 4° C. for 120 min, unless otherwise indicated. Cell-bound [^3H]SPC or [^3H]LPC was collected onto a filter (Printed Filtermat A, Wallac, Gaithersburg, Md.) using an automated cell harvester (HARVESTER 96, Tomtec, Orange, Conn.). Specific binding was calculated by subtraction of nonspecific binding (binding detected in the presence of 100-fold excess unlabeled SPC or 16:0-LPC) from the total binding.
Using functional and binding assays, we have identified the ligands for TDAG8.

[5] = target: T1, TDAG8; experiment: TDAG8 receptor internalization; format: cell-based
From the text: G protein coupled receptors undergo agonist-dependent desensitization and internalization.

[6] = target: T1, TDAG8; experiment: MAP kinase reporter system in TDAG8 co-transfected HEK293 cells; format: cell-based; conditions: 1-5 μM
From the text: To further explore the TDAG8-mediated cellular response to SPC, MAP kinase activation was examined using the MAP kinase reporter system from Stratagene.

[7] = target: T4, OGR1 (Homo sapiens, UniProt Q15743); experiment: MAP kinase reporter system in OGR1 co-transfected cells; format: cell-based
T4 construct: expressed in transfected cells
T4 sequence (Q15743 whole entry, species assumed): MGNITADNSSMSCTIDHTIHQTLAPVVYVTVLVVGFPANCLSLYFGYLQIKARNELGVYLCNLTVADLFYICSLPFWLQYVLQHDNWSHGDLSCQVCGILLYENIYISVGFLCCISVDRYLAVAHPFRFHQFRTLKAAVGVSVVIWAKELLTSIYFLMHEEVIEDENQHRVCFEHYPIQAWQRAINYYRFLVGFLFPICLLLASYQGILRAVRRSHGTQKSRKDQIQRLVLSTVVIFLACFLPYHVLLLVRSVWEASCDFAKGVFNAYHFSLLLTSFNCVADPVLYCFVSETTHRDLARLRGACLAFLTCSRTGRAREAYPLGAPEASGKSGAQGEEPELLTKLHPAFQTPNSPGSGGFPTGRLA

[8] = target: T3, GPR4; experiment: SRE luciferase reporter in GPR4-transfected HEK293 cells; format: cell-based; conditions: GPR4-transfected HEK293 cells; for EC50: read-out: EC50 for the activation of SRE; for activation of SRE reporter: lipid 1 μM
Summary of the method: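 HEK293 cells, vector-, GPR4- or TDAG8-transfected, co-transfected with pSRE-Luc, serum-starved 16 h, then given SPC or other lipids in serum-free RPMI 1640 for 10 h before luciferase readout from lysates. Where used, PTX (100 ng/ml) added during starvation; C3-exoenzyme plasmid co-transfected. Quadruplicates, Student's t test, p<0.05.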

[9] = tested on: vector-transfected HEK293 cells; experiment: SRE luciferase reporter in vector-transfected HEK293 cells; format: cell-based, human
Experimental: The serum-response element (SRE) reporter system is a sensitive assay for receptors of lipid factors (An et al. (1998) J Biol Chem 273, 7906-7910; An et al. (1999) Mol Pharmacol 55, 787-794). The SRE reporter system used herein (pSRE-Luc) was a gift from Dr. Songzhu An (UCSF), or may be purchased from Stratagene (La Jolla, Calif.). Both systems give identical results. HEK293 and HEK293GPR4 cells were cultured in RPMI1640 with 10% FBS in 10 cm dishes to ˜85% confluence. To the cells in each dish, pSRE-Luc (10 μg) was transfected in the presence of 60 μl LipofectAMINE reagent. Cells were seeded in 96-well plates 16 h after transfection, incubated for another 24 h in RPMI1640 with 10% FBS, and starved in serum-free medium for 16 h. SPC (dissolved in PBS to 10 mM) and other lipids (LPCs were dissolved in 70% ethanol. Other lipids were dissolved in PBS, 70-95% ethanol, or 100% MeOH) were diluted in serum free RPMI 1640 and added to the cells, followed by a 10 h incubation. Luciferase activity was measured in Microlite™ 1 plates (DYNEX Technologies, Inc., Virginia) using 60 μl of cell lysate and 20 μl luciferase substrate. PTX (100 ng/ml) was added during the 16 h serum starvation period and pcDNA1-C3 (encoding the C3-exoenzyme, 2 μg) was co-transfected with pSRE-Luc (10 μg). All experiments were performed in quadruplicate and were repeated at least three times. The Student's t test was performed using the GraphPad Instat software (San Diego, Calif.). p<0.05 was considered to be statistically significant.

T1 sequence (Q8IYL9 whole entry): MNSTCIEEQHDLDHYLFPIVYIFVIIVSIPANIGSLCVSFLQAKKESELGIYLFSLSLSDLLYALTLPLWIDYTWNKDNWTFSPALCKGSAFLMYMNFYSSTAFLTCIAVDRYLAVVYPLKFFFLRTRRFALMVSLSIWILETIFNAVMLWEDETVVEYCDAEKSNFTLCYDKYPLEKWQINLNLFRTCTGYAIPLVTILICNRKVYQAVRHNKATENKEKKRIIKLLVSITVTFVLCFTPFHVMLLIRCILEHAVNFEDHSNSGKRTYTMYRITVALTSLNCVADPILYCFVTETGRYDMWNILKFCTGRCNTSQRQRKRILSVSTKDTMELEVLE

| Molecule | increase of cell migration compared with control cells [1] | calcium increase through the endogenous PAF receptor in parental cells [2] | cell migration in Transwell (in words) [3] | binding to TDAG8 [4] | TDAG8 receptor internalization [5] | activation of p42/44 MAP kinase (reporter luciferase activity) [6] | MAP kinase activation (reporter) [7] | EC50 [8] [nM] | activation of SRE reporter [8] [fold] | activation of SRE reporter ([9]; lipid 1 μM) [fold] | transcriptional activation of SRE (in words) [9] |
| --- | --- | --- | --- | --- | --- | --- | --- | --- | --- | --- | --- |
| lysophosphatidylcholine [LPC] | four to five-fold | not able to induce an increase in calcium | increased cell migration | able to bind to TDAG8 | not | induced activation of p42/44 MAP kinase | weakly inhibitory | – | – | – | – |
| CCCCCCCCCCCCC/C=C/[C@@H](O)[C@@H](N)COP(=O)([O-])OCC[N+](C)(C)C [SPC, Sphingosylphosphorylcholine] | four to five-fold | not able to induce an increase in calcium | increased cell migration | able to bind to TDAG8 | induced TDAG8 receptor internalization | induced activation of p42/44 MAP kinase | only achieved by SPC | 63 | 4 | ≤ 1.5 | – |
| CCCCCCCCCCCCCCCC(=O)OC[C@@H](O)COP(=O)([O-])OCC[N+](C)(C)C [16:0-LPC] | – | – | – | – | – | – | – | 160 | 3.1 | – | not |
